From US20240016812A1, “COMPOSITION FOR PREVENTING, ALLEVIATING OR TREATING CANCER” (CKP Therapeutics, Inc., priority 2021, published 2024)

How the values were obtained:
YUMC-C1 cell line [1] = settings: YUMC-C1 xenograft mice; oral, 13 times for 41 days; doses of Table 3; vs control group
Description: (§1) 15 days after injection of each of the cell lines, when the tumor volume reached about 100 to 200 mm^3, mice having a tumor with the above volume were randomly grouped (n=10/group), and then each drug was administered to the mice 13 times for a total of 41 days under the conditions shown in Table 3 below. Then, the changes in tumor volume during this administration were measured, and the results of the measurement are shown in FIG. 3. In addition, the tumor was extracted and the net weight of the tumor was measured, and the results of the measurement are shown in FIG. 4. Here, nothing was administered to the control group.

YUMC-C1 cell line [2] = settings: 200 μM, drug alone
Description: Each of the YUMC-C1, YUMC-H2 and YUMC-P1 cell lines of Example 1 was inoculated into 96-well plates at a density of 6×10^3 cells/well and then cultured overnight to a confluence of 90%. […] However, when hydroflumethiazide was used in combination with oxaliplatin or sorafenib, the treatment concentration of each of oxaliplatin and sorafenib was 30 μM. Thereafter, cell viability was measured using the MTT reagent. The absorbance was measured at 550 nm, and viable cells were counted using trypan blue staining.

YUMC-P1 cell line [3] = assay: MTT cell viability of anticancer drug-resistant cancer cell line; type: cell-based, human; settings: 200 μM, drug alone
YUMC-P1 cell line [4] = settings: YUMC-P1 xenograft mice; oral, 13 times for 41 days; doses of Table 3
Description: as §1

YUMC-H2 cell line [5] = settings: YUMC-H2 xenograft mice; oral, 13 times for 41 days; doses of Table 3
Description: as §1

YUMC-H2 cell line [6] = assay: MTT cell viability of anticancer drug-resistant cancer cell line; type: cell-based, human; settings: 200 μM, drug alone

SMILES | net tumor weight (YUMC-C1 cell line [1]) | tumor volume (YUMC-C1 cell line [1]) | cells survived (YUMC-C1 cell line [2]) | cells survived (YUMC-P1 cell line [3]) | net tumor weight (YUMC-P1 cell line [4]) | tumor volume (YUMC-P1 cell line [4]) | net tumor weight (YUMC-H2 cell line [5]) | tumor volume (YUMC-H2 cell line [5]) | cells survived (YUMC-H2 cell line [6])
O=C1[O][Pt]2([NH][C@@H]3CCCC[C@H]3[NH]2)[O]C1=O [oxaliplatin] | did not significantly decrease | did not significantly decrease | more than 80% | – | – | – | – | – | –
CNC(=O)c1cc(Oc2ccc(NC(=O)Nc3ccc(Cl)c(C(F)(F)F)c3)cc2)ccn1 [sorafenib] | – | – | – | more than 80% | no significant changes | no significant changes | no significant changes | no significant changes | more than 80%
